We go through two compounds from ChEMBL document CHEMBL1201862, “PubChem BioAssay data set” (2004).

Molecules are shown by their SMILES.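 1) Cells in 96-well plates. 2) Compound, 48 h, 5 concentrations. 3) Linear interpolation between surrounding doses. 4) Unreached endpoint = highest concentration. GI50: concentration for 50% inhibition of growth.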 Activity calls are given as the source filed them. Cut-off read from the data, not from the text of the source: active = GI50 up to about 1.1 µM and inactive = higher. Some results are limits rather than exact numbers.

Experiment in all cases: NCI-60 cell line screen, 48 h
In test [1] the test system is EKVX.
Test [2] concerns SR.
Test [3] deals with U-251.
Test [4] deals with RPMI-8226.
Test [5] deals with M14.
For test [6], the system named is SN12C.
In test [7] the test system is HCC 2998.
Test [8] concerns HCT-15.
Test [9] concerns OVCAR-5.
The subject of test [10] is MDA-N.
Test [11] relates to DU-145.
Test [12] concerns MDA-MB-231.
In test [13] the test system is RXF 393.
Test [14] has as its system NCI-H522.
Test [15] concerns BT-549.
Test [16] has as its system NCI-H460.
Test [17] concerns KM12.
Test [18] concerns COLO 205.
Test [19] concerns MDA-MB-435.
Test [20] concerns CAKI-1.

Turning to `CC(=O)NC1C(OC(C)C(=O)NC(C)C(=O)NC(CCC(=O)NCCCCCNc2ccc([N+](=O)[O-])c3[nH]c4ccccc4c(=O)c23)C(N)=O)C(O)C(CO)OC1(C)OCc1ccccc1` (stereo not given), the GI50 in test [1] was > 100 µM (inactive); in test [2], 14 µM (inactive); in [3], > 100 µM (inactive); in test [4], 28.1 µM (inactive); in [5], > 100 µM (inactive); in test [6], > 100 µM (inactive). In addition, the GI50 in [7] was > 100 µM (inactive); in test [8] it was 73.8 µM; in test [9] it was > 100 µM (inactive); in test [10], > 100 µM (inactive); in test [11], 64.6 µM (inactive); in test [12] it was 46.9 µM (inactive). Besides, the GI50 in test [13] is 87.1 µM (inactive); in test [14], > 100 µM (inactive); in [15] it was > 100 µM (inactive); in [16] it was 26.7 µM (inactive); in test [17], 79.3 µM (inactive); in test [18] it was > 100 µM (inactive). Besides, the GI50 in test [19] and in [20] was > 100 µM (inactive) throughout.

For `Cc1nc2[nH]ccn2c(=O)c1CCCl`, the GI50 in [1] was > 100 µM (inactive); in test [2], 24.2 µM (inactive); in [3] it was 20.9 µM (inactive); in [4], 28 µM (inactive); in test [5], 31.8 µM (inactive); in [6], 19.6 µM (inactive). Besides, the GI50 is 19.2 µM (inactive) in test [7]; 39.7 µM in test [8]; > 100 µM (inactive) in test [9]; 21.9 µM (inactive) in [10]; 23.6 µM (inactive) in [11]; 38.7 µM (inactive) in [12]. Also, the GI50 in [13] is 19.4 µM (inactive); in test [14], 20.7 µM (inactive); in [15], 25.2 µM (inactive); in test [16], 20.6 µM (inactive); in [17], 20.4 µM (inactive); in [18], 38.7 µM (inactive). In addition, the GI50 in [19] and in [20] was > 10 µM (inactive) throughout.
